# Experimental data from US12624031B2, “Inhibitors of ubiquitin specific peptidase 22 (USP22) and uses thereof for treating diseases and disorders” (Northwestern University, priority 2022, dated 2026).
# How the values were obtained:
# [1] = system: polarized CD4+ T-regulatory cells; assay: cytotoxicity in polarized CD4+ T-regulatory cells; type: cell-based, murine; conditions: 156 ng/mL to 5 ug/mL, compared to DMSO controls
# Experimental: FIG. 2: Cytotoxicity of compounds from 156 ng/mL to 5 ug/mL concentration range in polarized CD4+ T-regulatory cells. Murine CD4+ T-cells were isolated and polarized in vitro to T-regulatory cells using 5 ng/mL IL-2, 2 μg/mL anti-IL-4, 2 μg/mL anti-IFNγ, and 1 ng/mL TGFβ. After 48 hours, the inhibitors were added to the cells.
# We then synthesized all 17 compounds and validated their cytotoxicity to regulatory T cells. To this end, mouse CD4 T cells were polarized to FoxP3 Tregs for two days, followed by treatment of the cells with each of the compounds at the doses upto 5 ug/ml. […] In addition, the rest of the compounds had poor solubility in DMSO, and were not further tested.
# Foxp3 in iTreg cells = assay: in vitro dose response study in WT and Usp22-null iTreg cells; type: cell-based, murine
# Experimental: FIG. 6: Usp22i-S02 halts Usp22-mediated Foxp3 deubiqutination. A, Graphical representation of Foxp3 MFI change in WT versus 22KO iTreg cells treated with various doses of Usp22i-S02 (n=3). B, Representative histogram of Foxp3 MFI level in iTreg cells as Usp22 inhibitor concentration increases from 0-20 μg/mL. C, Cell survival of iTreg cells treated with various doses of Usp22i-S02 (n=3). D, FOXP3 and USP22 protein level in WT and 22KO mice treated with 10 μg/mL Usp22i-S02. E-F, Graphical and representative data of Foxp3 MFI of human Treg cells treated with various doses of Usp22i-S02 (n=3). G, Graphical representation of Foxp3 MFI in WT, Usp21-null, and Usp22-null Treg cells treated with Usp22i-S02 at 10 μg/mL (n=3). H, FOXP3 and USP22 protein degradation of cycloheximide (10 μg/mL) treated iTreg cells with or without the addition of 10 μg/mL of Usp22i-S02. I-J, Endogenous DUB assay IP in iTreg cells of USP22 with FOXP3 under increasing concentrations of Usp22i-S02. K, Foxp3 mRNA level in iTreg cells as Usp22 inhibitor concentration increases from 0-20 μg/mL (n=3). L, FOXP3 and USP22 level in WT iTreg cells with or without 20 μg/mL Usp22 inhibitor treated with 20 μM MG132. M, Graphical representation of the percentage of decrease of Foxp3 MFI in either WT or Usp22-null nTreg cells placed in low glucose conditions with or without the addition of 10 μg/mL of Usp22i-S02 (n=7-8). N, Graphical representation of the percentage of decrease of Foxp3 MFI in WT nTreg cells placed in hypoxic or low amino acid conditions with or without the addition of 10 μg/mL of Usp22i-S02 (n=3-5). G, Two-tailed unpaired t-test comparing within groups was performed to determine statistical significance. K, One-way ANOVA with Dunnet's multiple comparisons between rows relative to control was performed to determine statistical significance. M-N, Two-way ANOVA with Sidak's multiple comparisons between rows was performed to determine statistical significance. All data are presented as mean±stdev. NS, not significant. *P<0.05, **P<0.01, ***P<0.001, ****P<0.0001.
# After initial screening, we ran an in vitro dose response study on compound S02, dubbed Usp22i-S02, in both WT and Usp22-null iTreg cells (FIG. 6A-C).
compound,measurement,setting,value
"N#Cc1c2c(c(Nc3ccccc3)n3c1nc1ccccc13)CCCC2 [USP22i-S02, 11-anilino-7,8,9,10-tetrahydrobenzimidazo[1,2-b]isoquinoline-6-carbonitrile]",cytotoxicity to Tregs,[1],does not show severe cytotoxicity
same,viability of iTreg cells,Foxp3 in iTreg cells; 10 μg/mL,little effect on viability
same,FOXP3 degradation with MG132,"Foxp3 in iTreg cells; 20 μg/mL inhibitor, 20 μM MG132",halted by MG132 protease inhibition
same,FOXP3 degradation in cycloheximide treated iTreg cells,"Foxp3 in iTreg cells; CHX 10 μg/mL, 10 μg/mL inhibitor",enhanced FOXP3 degradation
same,effect on iTreg cells lacking Usp21,"Foxp3 in iTreg cells; Usp21-null, 10 μg/mL",full effect
same,FOXP3 levels in murine Treg cells lacking Usp22,"Foxp3 in iTreg cells; Usp22-null, in vivo and in vitro",minimal effect on FOXP3 levels
same,Foxp3 under glucose starvation in Treg cells lacking Usp22,"Foxp3 in iTreg cells; Usp22-null, low glucose, 10 μg/mL",no effect on Foxp3
same,Foxp3 stability under glucose starvation,"Foxp3 in iTreg cells; WT Treg cells, low glucose, 10 μg/mL",significantly diminished Foxp3 stability
same,Foxp3 MFI and protein level,"Foxp3 in iTreg cells; WT iTreg cells, 10 μg/mL",decreases in Foxp3 MFI and protein level comparable to Usp22-null iTreg cells
same,Foxp3 stability under hypoxic and amino acid starvation conditions,"Foxp3 in iTreg cells; WT nTreg cells, 10 μg/mL",reduces Foxp3 stability
same,Foxp3 transcription,"Foxp3 in iTreg cells; iTreg cells, 0-20 μg/mL",decreased Foxp3 transcription
same,FOXP3 ubiquitination,"Foxp3 in iTreg cells; iTreg cells, endogenous DUB assay IP",increased FOXP3 ubiquitination
